Where “and” joins values, the source holds several entries; their conditions need not be identical. Equal entries are not always repeated.
System: 598228-144-R-J1-PDC complex spheroid viability
Assay: Anticancer human tumor 598228-144-R-J1-PDC patient-derived serous endometrial adenocarcinoma cell line growth inhibition [GQUAD]
Conditions: for viability, T/C: stronger effect = lower value
Text: DNA G-quadruplex Stabilizer Agents in Combinations in Complex Spheroids
A high-throughput screen of multi-cell type tumor spheroids was designed to identify active combinations of DNA G-quadruplex stabilizer agents and targeted small molecules. Complex spheroids include a stromal component modeled by human endothelial cells (HUVEC) and fibroblasts modeled by human mesenchymal stem cells (MSCs). The concentration ranges selected for each drug and investigational agent were based upon clinically achievable concentrations if the clinical Cmax of the agent was known.
Compounds. The drugs and investigational agents: pidnarulex (CX-5461; NSC782164), APTO-253 (NSC789042), BRACO-19 (NSC847499), peposertib (NSC802822), ceralasertib (NSC780249), elimusertib (NSC800525), camonsertib (NSC841442), AZD-1390 (NSC803789), olaparib (NSC753686), talazoparib (NSC767125), ART-558 (NSC835418), sotorasib (NSC818433), MRTX-1133 (NSC836407), SN-38 (NSC673596), topotecan (NSC609699), etoposide (NSC141540), doxorubicin (NSC123127), gemcitabine (NSC613327), 5-fluorouracil (NSC19893), paclitaxel (NSC125973), vemurafenib (NSC761431), panobinostat (NSC761190), R-306465 (JNJ-16241199; NSC773264), adavosertib (NSC754352), TP-3654 (NSC805149), carboplatin (NSC241240), KSQ-4279 (NSC840948), and staurosporine (NSC755774) were obtained from the National Cancer Institute (NCI) Developmental Therapeutics Program Chemical Repository (34). The FDA-approved anticancer drug set is available from the NCI Developmental Therapeutics Program. […] The stock solutions were prepared in dimethyl sulfoxide (DMSO, Sigma-Aldrich, St. Louis, MO, cat. D2650) at 800-fold the tested concentration and stored at -70 degrees C prior to their use. All drugs and investigational agents were tested over a range starting from a high concentration at or near the clinical Cmax and decreasing in half-log increments. If the clinical Cmax for an agent had not been determined, the highest concentration tested was 10 microM.
2.3 Cell Culture. All cells were maintained in an incubator at 37 degrees C and 5% CO2 with 95% humidity. The PDC lines were cultured according to standard operating procedures established by the NCI PDMR. All PDCs were thawed and cultured in Matrigel-coated flasks prepared with a working solution of 1X Ham's F-12 nutrient mix, without supplementation (Invitrogen, cat. 11765054), 100 U/mL penicillin-streptomycin (Invitrogen, cat. 15140122), and 2.5% Matrigel (Corning Inc., cat. 354248) for the first three passages. The 857933-349-R-J2-PDC line was cultured in 6C/Colon 1B media, which includes advanced DMEM/F-12 (Thermo Fisher Scientific, cat. 12634028), 10 mM HEPES (Thermo Fisher Scientific, cat. 15630080), 1X GlutaMAX supplement (Thermo Fisher Scientific, cat. 35050061), 0.1 mg/mL primocin (InvivoGen, cat. ant-pm-2), 10% defined fetal bovine serum, heat inactivated (HyClone Laboratories Inc., cat. SH30070.03HI), 50% L-WRN conditioned media (ATCC, cat. CRL-3276), 1.25 mM N-Acetyl-L-cysteine (Sigma-Aldrich, cat. A9165), 10 mM nicotinamide (Sigma-Aldrich, cat. N0636), 1X B-27 supplement (Thermo Fisher Scientific, cat. 17504044), 1X N-2 supplement (Thermo Fisher Scientific, cat. 17502048), 10 microM Y-27632 dihydrochloride (Tocris Bioscience, cat. 1254), and 50 ng/mL human EGF recombinant protein (Thermo Fisher Scientific, cat. PHG0311). The 485176-168-R4-J1-PDC line was cultured in Panc media, which includes all 6C/Colon 1B media components plus 100 ng/mL human FGF-10 (Thermo Fisher Scientific, cat. 100-26), 500 nM SB-431542 (Selleckchem, cat. S1067), and gastrin (Tocris, cat. 3006).
[…]

[1] = curve of first compound, second compound 0.0316 µM
[2] = curve of first compound, second compound 0.1 µM
[3] = curve of first compound, second compound 0.316 µM
[4] = curve of first compound, second compound 1 µM
[5] = curve of first compound, second compound 3.16 µM
[6] = curve of first compound, second compound 10 µM
[7] = second compound 0.0316 µM, first compound 0.0316 µM
[8] = second compound 0.0316 µM, first compound 0.1 µM
[9] = second compound 0.0316 µM, first compound 0.316 µM
[10] = second compound 0.0316 µM, first compound 1 µM
[11] = second compound 0.0316 µM, first compound 3.16 µM
[12] = second compound 0.0316 µM, first compound 10 µM
[13] = second compound 0.1 µM, first compound 0.0316 µM
[14] = second compound 0.1 µM, first compound 0.1 µM
[15] = second compound 0.1 µM, first compound 0.316 µM
[16] = second compound 0.1 µM, first compound 1 µM
[17] = second compound 0.1 µM, first compound 3.16 µM
[18] = second compound 0.1 µM, first compound 10 µM
[19] = second compound 0.316 µM, first compound 0.0316 µM
[20] = second compound 0.316 µM, first compound 0.1 µM
[21] = second compound 0.316 µM, first compound 0.316 µM
[22] = second compound 0.316 µM, first compound 1 µM
[23] = second compound 0.316 µM, first compound 3.16 µM
[24] = second compound 0.316 µM, first compound 10 µM
[25] = second compound 1 µM, first compound 0.0316 µM
[26] = second compound 1 µM, first compound 0.1 µM
[27] = second compound 1 µM, first compound 0.316 µM
[28] = second compound 1 µM, first compound 1 µM
[29] = second compound 1 µM, first compound 3.16 µM
[30] = second compound 1 µM, first compound 10 µM
[31] = second compound 3.16 µM, first compound 0.0316 µM
[32] = second compound 3.16 µM, first compound 0.1 µM
[33] = second compound 3.16 µM, first compound 0.316 µM
[34] = second compound 3.16 µM, first compound 1 µM
[35] = second compound 3.16 µM, first compound 3.16 µM
[36] = second compound 3.16 µM, first compound 10 µM
[37] = second compound 10 µM, first compound 0.0316 µM
[38] = second compound 10 µM, first compound 0.1 µM
[39] = second compound 10 µM, first compound 0.316 µM
[40] = second compound 10 µM, first compound 1 µM
[41] = second compound 10 µM, first compound 3.16 µM
[42] = second compound 10 µM, first compound 10 µM
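Further: spheroids exposed to the agents for one week before reading.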
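Wherever viability, T/C is given: percent of vehicle DMSO control viability so 100% = untreated growth.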

## CC1COCCN1c1cc(C2(O)CC3CCC(C2)O3)c2cnn(-c3ccn[nH]3)c2n1 (stereo unspecified)
Compound 0.0316 µM
  viability, T/C: 68.6% and 72.1% and 69.9%
Compound 0.1 µM
  viability, T/C: 40% and 42.8% and 48.9%
Compound 0.316 µM
  viability, T/C: 41.1% and 40% and 42.5%
Compound 1 µM
  viability, T/C: 33% and 40.1% and 34.1%
Compound 3.16 µM
  viability, T/C: 22.5% and 33.5% and 32.9%
Compound 10 µM
  viability, T/C: 11.1% and 15% and 15.1%
Curve of compound
  IC50: 101 nM and 134 nM and 154 nM

## CC(C)(O)C1CCC(Nc2ccc3ncc(-c4cccc(C(F)(F)F)c4)n3n2)CC1 (stereo unspecified) + CN(C)c1ccc(Nc2c3ccc(NC(=O)CCN4CCCC4)cc3nc3cc(NC(=O)CCN4CCCC4)ccc23)cc1
[1]
  IC50: 1860 nM
[2]
  IC50: 1910 nM
[3]
  IC50: 2100 nM
[4]
  IC50: 1890 nM
[5]
  IC50: 1970 nM
[6]
  IC50: 1810 nM
[7]
  viability, T/C: 112%
[8]
  viability, T/C: 95.7%
[9]
  viability, T/C: 79.2%
[10]
  viability, T/C: 78.5%
[11]
  viability, T/C: 25.1%
[12]
  viability, T/C: 27.3%
[13]
  viability, T/C: 96.3%
[14]
  viability, T/C: 99%
[15]
  viability, T/C: 112%
[16]
  viability, T/C: 81.4%
[17]
  viability, T/C: 26.6%
[18]
  viability, T/C: 24.1%
[19]
  viability, T/C: 98.9%
[20]
  viability, T/C: 87.8%
[21]
  viability, T/C: 112%
[22]
  viability, T/C: 85.3%
[23]
  viability, T/C: 31%
[24]
  viability, T/C: 24.1%
[25]
  viability, T/C: 101%
[26]
  viability, T/C: 87.9%
[27]
  viability, T/C: 128%
[28]
  viability, T/C: 79%
[29]
  viability, T/C: 29.5%
[30]
  viability, T/C: 23.4%
[31]
  viability, T/C: 110%
[32]
  viability, T/C: 104%
[33]
  viability, T/C: 107%
[34]
  viability, T/C: 89.1%
[35]
  viability, T/C: 22.6%
[36]
  viability, T/C: 21.8%
[37]
  viability, T/C: 93.3%
[38]
  viability, T/C: 75.3%
[39]
  viability, T/C: 81.7%
[40]
  viability, T/C: 76.6%
[41]
  viability, T/C: 24.8%
[42]
  viability, T/C: 16.6%

## Cc1[nH]c2ccc(F)cc2c1-c1nc2c3cccnc3c3ncccc3c2[nH]1
Compound 0.0316 µM
  viability, T/C: 99.3% [middle of 12 runs]
Compound 3.16 µM
  viability, T/C: 46.7% [middle of 12 runs]
Compound 10 µM
  viability, T/C: 68.5% [middle of 12 runs]
Compound alone, run of 03/18/2024
  IC50: > 10000 nM and 3620 nM
Compound alone, run of 03/26/2024
  IC50: > 10000 nM

## O=C(NO)c1cnc(N2CCN(S(=O)(=O)c3ccc4ccccc4c3)CC2)nc1 + CN(C)c1ccc(Nc2c3ccc(NC(=O)CCN4CCCC4)cc3nc3cc(NC(=O)CCN4CCCC4)ccc23)cc1
[1]
  IC50: 72.9 nM
[2]
  IC50: 104 nM
[3]
  IC50: 100 nM
[4]
  IC50: 125 nM
[5]
  IC50: 83.2 nM
[6]
  IC50: 52.6 nM
[7]
  viability, T/C: 79.4%
[8]
  viability, T/C: 35.2%
[9]
  viability, T/C: 26.3%
[10]
  viability, T/C: 0.43%
[11]
  viability, T/C: 0.48%
[12]
  viability, T/C: 0.27%
[13]
  viability, T/C: 87.8%
[14]
  viability, T/C: 49.5%
[15]
  viability, T/C: 24%
[16]
  viability, T/C: 0.39%
[17]
  viability, T/C: 0.39%
[18]
  viability, T/C: 0.25%
[19]
  viability, T/C: 81.3%
[20]
  viability, T/C: 49.5%
[21]
  viability, T/C: 18.3%
[22]
  viability, T/C: 0.5%
[23]
  viability, T/C: 0.26%
[24]
  viability, T/C: 0.42%
[25]
  viability, T/C: 92.3%
[26]
  viability, T/C: 56.6%
[27]
  viability, T/C: 21.2%
[28]
  viability, T/C: 0.43%
[29]
  viability, T/C: 0.22%
[30]
  viability, T/C: 0.38%
[31]
  viability, T/C: 108%
[32]
  viability, T/C: 38.9%
[33]
  viability, T/C: 8.39%
[34]
  viability, T/C: 0.37%
[35]
  viability, T/C: 0.29%
[36]
  viability, T/C: 0.29%
[37]
  viability, T/C: 73.7%
[38]
  viability, T/C: 19.8%
[39]
  viability, T/C: 5.5%
[40]
  viability, T/C: 0.39%
[41]
  viability, T/C: 0.39%
[42]
  viability, T/C: 0.34%
